Data on one compound can be found in patent US10195044B2, “Intervertebral disc implant” (Sinai Health System, priority 2013, dated 2019).

For this assay, the system named is sheep PDCs. Nature of the assay: ALP activity of predifferentiated chondrocytes cultured on CPP substrates.

SMILES strings stand for the structures.

On to `N[C@@H](Cc1cc(I)c(Oc2ccc(O)c(I)c2)c(I)c1)C(=O)O` [T3, triiodothyronine], for which the ALP activity entry (3 nM T3, absence of dexamethasone, 1 week on CPP substrates) was “maximized”. The “ALP activity level over 2 week culture” value (continuous 3 nM T3 treatment, maintained up to day 14) is on record as “significantly increased by day 4”.
